Publication PMC5587682 (Scientific Reports, 2017)
Residues, ends and D or L forms follow the SMILES beside them.

test system: A/Parma/24/09 H1N1 oseltamivir-resistant virus; type: cell-based, Influenza A virus; settings: turkey erythrocytes

Compound | HI titer [nM]
C[C@H](NC(=O)[C@H](Cc1c[nH]c2ccccc12)NC(=O)[C@H](CC(=O)O)NC(=O)[C@H](C)NC(=O)[C@@H](NC(=O)[C@H](CO)NC(=O)[C@H](CCC(=O)O)NC(=O)CNC(=O)[C@H](CC(N)=O)NC(=O)[C@@H](N)[C@@H](C)O)[C@@H](C)O)C(=O)N[C@@H](CCCCN)C(=O)N[C@@H](CC(N)=O)C(N)=O [Peptide 6, TNGESTADWAKN] (H-TNGESTADWAKN-NH2; N-terminus and C-terminus assumed) | 1.5
C[C@@H](O)[C@H](NC(=O)[C@H](CCC(=O)O)NC(=O)[C@H](CO)NC(=O)[C@@H](N)CCCCN)C(=O)N[C@@H](CCCCN)C(=O)N[C@@H](CC(N)=O)C(=O)O [Peptide 8, KSETKN] (H-KSETKN-OH; N-terminus and C-terminus assumed) | 0.3
NRKSSKHSSLDCVLRP [Peptide 11, bLf C-lobe fragment 414–429] | 12
SKHSSLDCVLRPTEGY [Peptide 12, bLf C-lobe fragment 418–433] | 0.1
CC(C)C[C@H](NC(=O)[C@@H](NC(=O)[C@H](CS)NC(=O)[C@H](CC(=O)O)NC(=O)[C@H](CC(C)C)NC(=O)[C@@H](N)CO)C(C)C)C(=O)N[C@@H](CCCNC(=N)N)C(=O)N1CCC[C@H]1C(N)=O [Peptide 13, SLDCVLRP] (H-SLDCVLRP-NH2) | 0.00015
NRKSSKHSSLDCVLRPTEGY [Peptide 10, bLf C-lobe fragment 414–433] | 6
CC(C)C[C@H](NC(=O)[C@H](CO)NC(=O)[C@H](CO)NC(=O)[C@H](Cc1c[nH]cn1)NC(=O)[C@H](CCCCN)NC(=O)[C@@H](N)CO)C(=O)N[C@@H](CC(=O)O)C(=O)N[C@@H](CS)C(=O)O [Peptide 16, SKHSSLDC] (H-SKHSSLDC-OH; N-terminus and C-terminus assumed) | 12
